Reference: PubChem BioAssay (NCI)
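Each compound was tested at five concentrations against cells in 96-well plates for 48 hours. TGI: total growth inhibition.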

Assays:
Assay in all cases: growth of human tumour cells (NCI), 48 h
786-0 renal = system: 786-0 renal
A498 renal = system: A498 renal
A549 NSCLC = system: A549 NSCLC
ACHN renal = system: ACHN renal
BT-549 breast = system: BT-549 breast
CAKI-1 renal = system: CAKI-1 renal
CCRF-CEM leukemia = system: CCRF-CEM leukemia
COLO 205 colon = system: COLO 205 colon
DU-145 prostate = system: DU-145 prostate
HCC-2998 colon = system: HCC-2998 colon
HCT-116 colon = system: HCT-116 colon
HCT-15 colon = system: HCT-15 colon
HL-60(TB) leukemia = system: HL-60(TB) leukemia
HOP-62 NSCLC = system: HOP-62 NSCLC
HOP-92 NSCLC = system: HOP-92 NSCLC
HS 578T breast = system: HS 578T breast
HT29 colon = system: HT29 colon
IGROV1 ovarian = system: IGROV1 ovarian
K-562 leukemia = system: K-562 leukemia
KM12 colon = system: KM12 colon
LOX IMVI melanoma = system: LOX IMVI melanoma
M14 melanoma = system: M14 melanoma
MALME-3M melanoma = system: MALME-3M melanoma
MCF7 breast = system: MCF7 breast
MDA-MB-231 breast = system: MDA-MB-231 breast
MDA-MB-435 = system: MDA-MB-435
MDA-N = system: MDA-N
MOLT-4 leukemia = system: MOLT-4 leukemia
NCI-H226 lung = system: NCI-H226 lung
NCI-H23 lung = system: NCI-H23 lung
NCI-H460 lung = system: NCI-H460 lung
NCI-H522 lung = system: NCI-H522 lung
NCI/ADR-RES ovarian = system: NCI/ADR-RES ovarian
OVCAR-3 ovarian = system: OVCAR-3 ovarian
OVCAR-8 ovarian = system: OVCAR-8 ovarian
PC-3 prostate = system: PC-3 prostate
RPMI-8226 leukemia = system: RPMI-8226 leukemia
RXF 393 renal = system: RXF 393 renal
SF-268 CNS = system: SF-268 CNS
SF-295 CNS = system: SF-295 CNS
SF-539 CNS = system: SF-539 CNS
SK-MEL-2 melanoma = system: SK-MEL-2 melanoma
SK-MEL-28 melanoma = system: SK-MEL-28 melanoma
SK-MEL-5 melanoma = system: SK-MEL-5 melanoma
SK-OV-3 ovarian = system: SK-OV-3 ovarian
SN12C renal = system: SN12C renal
SNB-19 CNS = system: SNB-19 CNS
SNB-75 CNS = system: SNB-75 CNS
SR leukemia = system: SR leukemia
SW-620 colon = system: SW-620 colon
T-47D breast = system: T-47D breast
TK-10 renal = system: TK-10 renal
U251 CNS = system: U251 CNS
UACC-257 melanoma = system: UACC-257 melanoma
UACC-62 melanoma = system: UACC-62 melanoma
UO-31 renal = system: UO-31 renal
EKVX NSCLC = system: EKVX NSCLC
OVCAR-4 ovarian = system: OVCAR-4 ovarian
OVCAR-5 ovarian = system: OVCAR-5 ovarian

Q: Which results are given for `CN(C)Cc1cc(N=Nc2ccc(Cl)cc2)cc(CN(C)C)c1O`?
A: TGI (786-0 renal): 17.9 µM; TGI (A498 renal): 29.8 µM; TGI (A549 NSCLC): 21.3 µM; TGI (ACHN renal): 19 µM; TGI (BT-549 breast): 23.8 µM; TGI (CAKI-1 renal): 26.8 µM; TGI (CCRF-CEM leukemia): 7 µM; TGI (COLO 205 colon): 13.4 µM; TGI (DU-145 prostate): 35.4 µM; TGI (HCC-2998 colon): 23.6 µM; TGI (HCT-116 colon): 17.5 µM; TGI (HCT-15 colon): 21 µM; TGI (HL-60(TB) leukemia): 4.94 µM; TGI (HOP-62 NSCLC): 14.6 µM; TGI (HOP-92 NSCLC): 21.7 µM; TGI (HS 578T breast): 27.7 µM; TGI (HT29 colon): 19 µM; TGI (IGROV1 ovarian): 12 µM; TGI (K-562 leukemia): 6.75 µM; TGI (KM12 colon): 20.7 µM; TGI (LOX IMVI melanoma): 16.1 µM; TGI (M14 melanoma): 37.6 µM; TGI (MALME-3M melanoma): 28.6 µM; TGI (MCF7 breast): 21.3 µM; TGI (MDA-MB-231 breast): 20.9 µM; TGI (MDA-MB-435): 24.6 µM; TGI (MDA-N): 29.2 µM; TGI (MOLT-4 leukemia): 10.7 µM; TGI (NCI-H226 lung): 17.7 µM; TGI (NCI-H23 lung): 40.7 µM; TGI (NCI-H460 lung): 18.1 µM; TGI (NCI-H522 lung): 5.97 µM; TGI (NCI/ADR-RES ovarian): 13.6 µM; TGI (OVCAR-3 ovarian): 6.78 µM; TGI (OVCAR-8 ovarian): 12.7 µM; TGI (PC-3 prostate): 18.8 µM; TGI (RPMI-8226 leukemia): 37 µM; TGI (RXF 393 renal): 25.1 µM; TGI (SF-268 CNS): 30.3 µM; TGI (SF-295 CNS): 24.7 µM; TGI (SF-539 CNS): 23.2 µM; TGI (SK-MEL-2 melanoma): 27.8 µM; TGI (SK-MEL-28 melanoma): 23.9 µM; TGI (SK-MEL-5 melanoma): 21.1 µM; TGI (SK-OV-3 ovarian): 33.3 µM; TGI (SN12C renal): 23.8 µM; TGI (SNB-19 CNS): 25.5 µM; TGI (SNB-75 CNS): 25.8 µM; TGI (SR leukemia): 22.8 µM; TGI (SW-620 colon): 21.1 µM; TGI (T-47D breast): 33.6 µM; TGI (TK-10 renal): 21.3 µM; TGI (U251 CNS): 19.8 µM; TGI (UACC-257 melanoma): 31.5 µM; TGI (UACC-62 melanoma): 30.2 µM; TGI (UO-31 renal): 7.23 µM

Q: For `Cc1ccc(N(C)S(=O)(=O)c2ccccc2[N+](=O)[O-])cc1`, which TGI (786-0 renal) is on record?
A: The TGI was over 100 µM.

Q: And the TGI (A549 NSCLC)?
A: Its TGI is over 100 µM.

Q: What about the TGI (ACHN renal) of the same compound?
A: The TGI was over 100 µM.

Q: What about the TGI (BT-549 breast) of the same compound?
A: Its TGI is 61.7 µM.

Q: And the TGI (CAKI-1 renal)?
A: The TGI was over 100 µM.

Q: What about the TGI (COLO 205 colon) of the same compound?
A: The TGI was over 100 µM.

Q: What about the TGI (DU-145 prostate) of the same compound?
A: The TGI was over 100 µM.

Q: And the TGI (EKVX NSCLC)?
A: Its TGI is over 100 µM.

Q: What about the TGI (HCT-116 colon) of the same compound?
A: The TGI was over 100 µM.

Q: What about the TGI (HCT-15 colon) of the same compound?
A: The TGI was over 100 µM.

Q: What about the TGI (HL-60(TB) leukemia) of the same compound?
A: The TGI was over 100 µM.

Q: What about the TGI (HOP-62 NSCLC) of the same compound?
A: The TGI was over 100 µM.

Q: And the TGI (HT29 colon)?
A: Its TGI is over 100 µM.

Q: What about the TGI (KM12 colon) of the same compound?
A: Its TGI is over 100 µM.

Q: And the TGI (LOX IMVI melanoma)?
A: Its TGI is over 100 µM.

Q: And the TGI (M14 melanoma)?
A: Its TGI is 44.5 µM.

Q: And the TGI (MALME-3M melanoma)?
A: Its TGI is over 100 µM.

Q: And the TGI (MCF7 breast)?
A: The TGI was over 100 µM.

Q: And the TGI (MDA-MB-231 breast)?
A: The TGI was over 100 µM.

Q: And the TGI (MDA-MB-435)?
A: Its TGI is over 100 µM.

Q: And the TGI (MDA-N)?
A: Its TGI is over 100 µM.

Q: And the TGI (NCI-H226 lung)?
A: The TGI was over 100 µM.

Q: What about the TGI (NCI-H23 lung) of the same compound?
A: Its TGI is over 100 µM.

Q: And the TGI (NCI-H460 lung)?
A: The TGI was over 100 µM.

Q: What about the TGI (NCI-H522 lung) of the same compound?
A: The TGI was 94.6 µM.

Q: And the TGI (NCI/ADR-RES ovarian)?
A: The TGI was over 100 µM.

Q: And the TGI (OVCAR-3 ovarian)?
A: Its TGI is over 100 µM.

Q: And the TGI (OVCAR-4 ovarian)?
A: The TGI was over 100 µM.

Q: What about the TGI (OVCAR-5 ovarian) of the same compound?
A: The TGI was over 100 µM.

Q: And the TGI (OVCAR-8 ovarian)?
A: Its TGI is over 100 µM.

Q: And the TGI (PC-3 prostate)?
A: Its TGI is over 100 µM.

Q: What about the TGI (RPMI-8226 leukemia) of the same compound?
A: The TGI was over 100 µM.

Q: And the TGI (RXF 393 renal)?
A: The TGI was over 100 µM.

Q: And the TGI (SF-268 CNS)?
A: The TGI was over 100 µM.

Q: And the TGI (SF-295 CNS)?
A: Its TGI is over 100 µM.

Q: And the TGI (SF-539 CNS)?
A: Its TGI is over 100 µM.

Q: What about the TGI (SK-MEL-2 melanoma) of the same compound?
A: The TGI was over 100 µM.

Q: And the TGI (SK-MEL-28 melanoma)?
A: The TGI was over 100 µM.

Q: What about the TGI (SN12C renal) of the same compound?
A: Its TGI is over 100 µM.

Q: What about the TGI (SNB-19 CNS) of the same compound?
A: The TGI was over 100 µM.

Q: What about the TGI (SR leukemia) of the same compound?
A: The TGI was over 100 µM.

Q: And the TGI (SW-620 colon)?
A: The TGI was over 100 µM.

Q: And the TGI (T-47D breast)?
A: The TGI was over 100 µM.

Q: What about the TGI (TK-10 renal) of the same compound?
A: The TGI was over 100 µM.

Q: And the TGI (U251 CNS)?
A: The TGI was over 100 µM.

Q: What about the TGI (UACC-257 melanoma) of the same compound?
A: The TGI was over 100 µM.

Q: What about the TGI (UO-31 renal) of the same compound?
A: The TGI was over 100 µM.
